In one data set the target is T1, recombinant His-CHK1 (Homo sapiens, UniProt O14757).
T1 construct: His-CHK1, In House Lot P976, MW ˜30 KDa, stored at −80° C; fused on or other part: His tag
T1 sequence (O14757 1-265 limits assumed): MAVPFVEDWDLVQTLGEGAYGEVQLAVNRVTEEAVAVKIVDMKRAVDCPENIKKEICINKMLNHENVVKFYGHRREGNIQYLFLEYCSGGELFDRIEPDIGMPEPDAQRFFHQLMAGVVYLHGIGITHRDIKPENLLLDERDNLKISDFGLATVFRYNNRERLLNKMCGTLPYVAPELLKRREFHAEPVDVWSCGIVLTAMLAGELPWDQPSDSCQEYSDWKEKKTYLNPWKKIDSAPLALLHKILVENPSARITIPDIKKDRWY
Description: CHK1 SPA Assay. The class given is biochemical. To be noted: CDC25C biotinylated peptide substrate, 1 uM ATP.

In the next data set the target is T2, CDK2/cyclin A (Homo sapiens, UniProt P24941).
T2 construct: made in house; host or cells: SF9 cells (recombinant baculovirus, pFASTBAC)
Description: CDK2 Assay (in vitro kinase assay, cyclin A-dependent). The class given is biochemical.

[1] abbreviates: SPA, biotinylated Histone H1 peptide substrate, read-out: CDK2/cyclin A IC50.
[2] abbreviates: read-out: CDK2/cyclin A IC50, SPA, biotinylated Histone H1 peptide substrate.

Where two headings read alike, the source gives them in different places.

`Cn1cc(-c2cnn3c(N)c(-c4ccccc4)c(C4CCCNC4)nc23)cn1` (centres unmarked): on recombinant His-CHK1 (CHK1 IC50 [nM]), the IC50 came out at 563 nM.
Regarding `CC(=O)c1c(C2CCCNC2)nc2c(-c3cnn(C)c3)cnn2c1N` (centres unmarked), the IC50 at recombinant His-CHK1 (read-out: CHK1 IC50) was 8 nM; at CDK2/cyclin A it was 0.033 µM.
For the compound `Cn1cc(-c2c(C3CCCNC3)nc3c(-c4cnn(C)c4)cnn3c2N)cn1` (centres unmarked), the IC50 at recombinant His-CHK1 (CHK1 IC50 [nM]) was determined as 102 nM; at CDK2/cyclin A (setting [1]), 224 µM.
Take `Nc1c(-c2ccccc2)c(N2CC[C@H](N)C2)nc2c(Br)cnn12`: the melting point (in general, the temperature of the solid-liquid transition) fell in the range of 167 to 170 °C. Besides, the IC50 at recombinant His-CHK1 (read-out: CHK1 IC50) was found to be 22600 nM.
For the compound `Cn1cc(-c2cnn3c(N)c(-c4ccncc4)c(C4CCCNC4)nc23)cn1` (centres unmarked), the IC50 is 229 nM on recombinant His-CHK1 (CHK1 IC50 [nM]) and 11.3 µM at CDK2/cyclin A (setting [1]).
On to `Cn1cc(-c2cnn3c(N)c(C#N)c(C4CCCNC4)nc23)cn1` (centres unmarked), for which the IC50 at recombinant His-CHK1 (CHK1 IC50 [nM]) came to 102 nM; on CDK2/cyclin A (setting [1]), 1.72 µM.
For `CCC(=O)c1c(C2CCCNC2)nc2c(-c3cnn(C)c3)cnn2c1N` (centres unmarked), the IC50 on recombinant His-CHK1 (read-out: CHK1 IC50) was found to be 12 nM; at CDK2/cyclin A, 0.038 µM.
For the compound `Cc1c(N2CC[C@H](N)C2)nc2c(Br)cnn2c1N`, the IC50 at recombinant His-CHK1 (read-out: CHK1 IC50) is 1580 nM; at CDK2/cyclin A (setting [2]), 0.754 µM.
As to `Cn1cc(-c2cnn3c(N)c(C(=O)Cc4ccccc4)c(C4CCCNC4)nc23)cn1` (centres unmarked), the IC50 on recombinant His-CHK1 (read-out: CHK1 IC50) is 47 nM; against CDK2/cyclin A, 0.103 µM.
As to `CC(O)c1c(C2CCCNC2)nc2c(-c3cnn(C)c3)cnn2c1N` (single isomer, unassigned) [drawing 213], the IC50 at recombinant His-CHK1 (read-out: CHK1 IC50) stood at 18 nM.
Consider `Cc1nc2c(Br)cnn2c(N)c1CCC(N)=O`, for which the IC50 was over 50000 nM at recombinant His-CHK1 (read-out: CHK1 IC50) and 0.882 µM at CDK2/cyclin A (setting [2]).
Turning to `CC#Cc1c(C2CCCNC2)nc2c(-c3cnn(C)c3)cnn2c1N` (centres unmarked), the IC50 at recombinant His-CHK1 (CHK1 IC50 [nM]) was found to be 44 nM; on CDK2/cyclin A (setting [1]), 1.29 µM.
`CC(=NO)c1c(C2CCCNC2)nc2c(-c3cnn(C)c3)cnn2c1N` (centres unmarked): at recombinant His-CHK1 (read-out: CHK1 IC50), the IC50 was found to be 59 nM.
Take `Cc1nc2c(Br)cnn2c(N)c1CCO`: the IC50 worked out at 29100 nM at recombinant His-CHK1 (read-out: CHK1 IC50) and 0.069 µM at CDK2/cyclin A (setting [2]).
Regarding `CCc1c(C2CCCNC2)nc2c(-c3cnn(C)c3)cnn2c1N` (centres unmarked), the IC50 at recombinant His-CHK1 (CHK1 IC50 [nM]) amounted to 31 nM; on CDK2/cyclin A (setting [1]), 0.334 µM.
As to `COC/C=C/c1c(C2CCCNC2)nc2c(-c3cnn(C)c3)cnn2c1N` (centres unmarked), the IC50 at recombinant His-CHK1 (CHK1 IC50 [nM]) came to 52 nM.
In the case of `C=C(C)c1c(C2CCCNC2)nc2c(-c3cnn(C)c3)cnn2c1N` (centres unmarked), the figures for the IC50 on recombinant His-CHK1 (read-out: CHK1 IC50) and against CDK2/cyclin A were 67 nM and 0.201 µM, respectively.
With `Cn1cc(-c2cnn3c(N)c(-c4cccnc4)c(C4CCCNC4)nc23)cn1` (centres unmarked), the IC50 turned out to be 507 nM at recombinant His-CHK1 (CHK1 IC50 [nM]) and 1.48 µM on CDK2/cyclin A (setting [1]).
Take `Cn1cc(-c2cnn3c(N)c(-c4cnn(CCO)c4)c(C4CCCNC4)nc23)cn1` (centres unmarked): the results for the IC50 on recombinant His-CHK1 (read-out: CHK1 IC50) and against CDK2/cyclin A were 114 nM and 11.7 µM, respectively.
With `CNC(=O)Cc1c(C)nc2c(Br)cnn2c1N`, the IC50 at recombinant His-CHK1 (read-out: CHK1 IC50) is over 50000 nM; at CDK2/cyclin A (setting [2]) it was 41.3 µM.
In the case of `Cn1cc(-c2cnn3c(N)c(-c4ccoc4)c(C4CCCNC4)nc23)cn1` (centres unmarked), the IC50 on recombinant His-CHK1 (CHK1 IC50 [nM]) is 340 nM.
Regarding `Cn1cc(-c2cnn3c(N)c(-c4ccsc4)c(C4CCCNC4)nc23)cn1` (centres unmarked), the IC50 on recombinant His-CHK1 (CHK1 IC50 [nM]) is 160 nM; on CDK2/cyclin A (setting [1]), 2.15 µM.
For `CC(O)c1c(C2CCCNC2)nc2c(-c3cnn(C)c3)cnn2c1N` (single isomer, unassigned) [drawing 212], the IC50 at recombinant His-CHK1 (read-out: CHK1 IC50) was 148 nM.
On to `Cc1nc2c(Br)cnn2c(N)c1CC(N)=O`, for which the IC50 at recombinant His-CHK1 (read-out: CHK1 IC50) was determined as 4750 nM; at CDK2/cyclin A (setting [2]) it was 1.19 µM.
As for `Cn1cc(-c2cnn3c(N)c(C4CC4)c(C4CCCNC4)nc23)cn1` (centres unmarked), the IC50 on recombinant His-CHK1 (CHK1 IC50 [nM]) amounted to 17 nM; at CDK2/cyclin A (setting [1]), 0.167 µM.
On to `Cn1cc(-c2cnn3c(N)c(-c4cccs4)c(C4CCCNC4)nc23)cn1` (centres unmarked), for which, on recombinant His-CHK1 (CHK1 IC50 [nM]), the IC50 was found to be 86 nM.
For the compound `CCc1c(N2CC[C@H](N)C2)nc2c(Br)cnn2c1N`, the IC50 on recombinant His-CHK1 (read-out: CHK1 IC50) was determined as 845 nM; on CDK2/cyclin A (setting [2]), 0.852 µM.

These data come from US7776865B2, “Substituted pyrazolo[1,5-a]pyrimidines as protein kinase inhibitors” (Schering Corporation, priority 2005, dated 2010).
